Laboratory results from patent publication US10092002B2, “Herbicidal composition comprising nicosulfuron or its salt and S -metolachlor or its salt” (ISHIHARA SANGYO KAISHA, LTD., priority 2011, dated 2018).

Key:
Type in all cases: in vivo
[1] = tested on: wild oat (Avena fatua L.); experiment: Test Example 3: soil treatment, wild oat, visual growth inhibition rate; settings: Avena fatua, soil treatment the day after sowing, 14th day after treatment, read-out: Growth inhibition rate (%) of wild oat, Measured value
Source text: When the herbicidal activity in a case where two active ingredients are combined, is larger than the simple sum of the respective herbicidal activities of the two active ingredients (the expected activity), it is called a synergistic effect. The activity expected by the combination of two active ingredients can be calculated as follows (Colby S. R., “Weed”, vol. 15, p. 20-22, 1967). […] In a case where three active ingredients are combined, the activity can be similarly calculated as follows. […] On the 22nd day after treatment, the state of growth of the common cocklebur was visually observed to determine the growth inhibition rate in accordance with the following evaluation standard. The growth inhibition rate (%) (measured value) and the growth inhibition rate (%) (calculated value) calculated by the Colby's formula are shown in Table 1. […] On the 14th day after treatment, the state of growth of the wild oat was visually observed to determine the growth inhibition rate.

[2] = tested on: common cocklebur (Xanthium strumarium L.); experiment: Test Example 1: foliar treatment of common cocklebur in pots, visual growth inhibition rate; settings: Xanthium strumarium, foliar treatment at 4.3 to 4.8-leaf stage, 22nd day after treatment, read-out: Growth inhibition rate (%) of common cocklebur, Measured value
Source text: When the herbicidal activity in a case where two active ingredients are combined, is larger than the simple sum of the respective herbicidal activities of the two active ingredients (the expected activity), it is called a synergistic effect. The activity expected by the combination of two active ingredients can be calculated as follows (Colby S. R., “Weed”, vol. 15, p. 20-22, 1967). E1=α+β-(α×β÷100) In a case where three active ingredients are combined, the activity can be similarly calculated as follows. […] Upland field soil was put into a 1/1,000,000 ha pot, and seeds of common cocklebur (Xanthium strumarium L.) were sown. […] Dual Gold, manufactured by Syngenta Crop Protection AG), SC agent containing terbuthylazine as an active ingredient (tradename: Click, manufactured by BASF), SC agent containing mesotrione as an active ingredient (tradename: Callisto, manufactured by Syngenta Crop Protection AG) and WG agent containing prosulfuron as an active ingredient (tradename: Peak, manufactured by Syngenta Crop Protection AG) were diluted with water in an amount corresponding to 1,000 Uha, and applied for foliar treatment by a small sprayer. On the 22nd day after treatment, the state of growth of the common cocklebur was visually observed to determine the growth inhibition rate in accordance with the following evaluation standard. The growth inhibition rate (%) (measured value) and the growth inhibition rate (%) (calculated value) calculated by the Colby's formula are shown in Table 1.

[3] = tested on: sunn-hemp (Crotalaria juncea L.); experiment: Test Example 4: soil treatment, sunn-hemp, visual growth inhibition rate; settings: Crotalaria juncea, soil, read-out: Growth inhibition rate (%) of sunn-hemp, Measured value
Source text: In a case where three active ingredients are combined, the activity can be similarly calculated as follows. E2=(α+β+γ)−(αβ+αγ+βγ)/100+(αβγ)/10000 where α: growth inhibition rate when treated with x (g/ha) of herbicide X,
Growth inhibition rate (%)=0 (equivalent to the non-treated area) to 100 (complete kill)
Upland field soil was put into a 1/300,000 ha pot, and seeds of sunn-hemp (Crotalaria juncea L.) were sown.

## CS(=O)(=O)c1ccc(C(=O)C2C(=O)CCCC2=O)c([N+](=O)[O-])c1 [Mesotrione, 2-(4-mesyl-2-nitrobenzoyl)cyclohexane-1,3-dione]
[1]; dose 25 g/ha
  inhibition at 25 g/ha: 0%
[1]; dose 150 g/ha
  inhibition at 150 g/ha: 5%
[2]; dose 50 g/ha
  inhibition at 50 g/ha: 0%

## COCCOCc1nc(C(F)(F)F)ccc1C(=O)C1=C(O)C2CCC(C2)C1=O (centres unmarked) [Bicyclopyrone, 4-hydroxy-3-{2-[(2-methoxyethoxy)methyl]-6-(trifluoromethyl)-3-pyridylcarbonyl}bicyclo[3.2.1]oct-3-en-2-one]
[3]
  inhibition at 25 g/ha: 0%
  inhibition at 150 g/ha: 20%

## CCNc1nc(Cl)nc(NC(C)(C)C)n1 [Terbuthylazine, N^2-tert-butyl-6-chloro-N^4-ethyl-1,3,5-triazine-2,4-diamine]
[1]; dose 250 g/ha
  inhibition at 250 g/ha: 25%
[1]; dose 1500 g/ha
  inhibition at 1500 g/ha: 5%
[2]; dose 500 g/ha
  inhibition at 500 g/ha: 10%

## COc1nc(C)nc(NC(=O)NS(=O)(=O)c2ccccc2CCC(F)(F)F)n1 [Prosulfuron, 1-(4-methoxy-6-methyl-1,3,5-triazin-2-yl)-3-[2-(3,3,3-trifluoropropyl)phenylsulfonyl]urea]
[1]; dose 2.5 g/ha
  inhibition at 2.5 g/ha: 25%
[1]; dose 50 g/ha
  inhibition at 50 g/ha: 0%
[2]; dose 15 g/ha
  inhibition at 15 g/ha: 88%
